Earlier results in patent US20250234859A1, “AQUEOUS SUSPENSION AGROCHEMICAL COMPOSITION, DISEASE CONTROL METHOD, AND USEFUL PLANT SEEDS” (KUMIAI CHEMICAL INDUSTRY CO., LTD., priority 2021, published 2025).

Test system: rice blast, glume blotch, cucumber downy mildew, and cucumber anthracnose
Settings: diseases such as rice blast, Patent Document 3

For `O=S1(=O)N=C(OCc2snc(Cl)c2Cl)c2ccccc21` [dichlobentiazox, 3-(3,4-dichloroisothiazol-5-ylmethoxy)-1,2-benzothiazole-1,1-dioxide], the “effect on plant diseases” value is given as “remarkable effect”.
